Source: patent US20090018136A1, “METHODS AND COMPOSITIONS FOR THE TREATMENT OF VASCULAR DISEASE” (priority 2005, published 2009)

Tests used:
cardiac allograft = conditions: cited from earlier work
coronary vessel = conditions: in vivo; cited from earlier work
[1] = patients with Type II diabetes and coronary heart disease compared to control subjects; cited from earlier work
brachial artery = test: Study 1: brachial artery flow-mediated and nitroglycerin-mediated vasodilation by ultrasound; format: in vivo, human
Description: The technique was carried out as described in Prasad et al., Circulation, 2000. 101(20): p. 2349-54. Briefly, using an 11 MHz high resolution ultrasound transducer (Acuson Inc) in a temperature-controlled room, brachial diameter was measured above the antecubital fossa in the non-dominant arm. Flow-mediated vasodilation (FMD) was measured by inflating a BP cuff on the forearm to >200 mm Hg for 5 minutes, deflating rapidly, and measuring brachial diameter at 1 minute after onset of hyperemia. For all measurements three diameters were measured on three separate end-diastolic frames and averaged. To obtain the maximal brachial artery dilation that represents FMD the following equation was used: (average diameter with hyperemia−average baseline diameter)÷average baseline diameter X 100. To measure the endothelium-independent vasodilator response, subjects were given sublingual nitroglycerin 0.4 mg and the brachial diameter was measured as above after 5 minutes. To obtain endothelium-independent vasodilation the following equation was used: (average diameter post nitroglycerin-average baseline diameter)÷average baseline diameter X 100. For both study 1 and study 2, the primary end point after statistical analysis was a reduction of systolic, mean and diastolic BP during BH4 therapy. Secondary end points included improvement of endothelial function as FMD. Linear mixed effects models for repeated measures data were used to analyze change in BP from baseline to end of treatment period and differences in change between 100 mg and 200 mg dose groups. A quadratic term for week was included in the model to account for non-linear trends over the treatment period. Dose, week and week squared were the main effect terms in the model; dose by week and dose by week squared were the interaction terms in the model. Significant interaction terms indicate a difference in the pattern of change between the two dose groups. FMD data was analyzed using the two-tailed student t-test.

hypertensive patients [2] = test: Adverse events in Study 1 and Study 2 of oral BH4; format: in vivo, human; conditions: either study
From the text: Subjects between the ages of 18 and 75 years were recruited if they had uncontrolled hypertension on traditional stable anti-hypertensive therapy (BP≧135/85), or newly diagnosed hypertension (BP≧140/90). Patients were continued on their current anti-hypertensive therapy which remained unchanged. The criteria for exclusion were: female subjects with childbearing potential, history of recently symptomatic coronary or peripheral vascular disease, known secondary causes for hypertension, severe uncontrolled hypertension (BP>180 mmHg systolic and/or 110 mmHg diastolic), severe co-morbid conditions which would limit life expectancy to less than 6 months, renal or hepatic dysfunction, alteration of any concomitant anti-hypertensive therapy within the last 6 weeks, and any bleeding disorders. BH4 powder was obtained from Schircks Laboratories (Jona, Switzerland). BH4 when administered with vitamin C was compounded with vitamin C at a ratio of 1 mg of vitamin C/1 mg BH4 into appropriate sized capsules. Subjects were advised to keep the pills in a freezer or refrigerator.
Of the 20 subjects who qualified for participation, 4 were excluded during the run-in phase because of inability to return for follow-up appointments. There were 6 male subjects, mean age 59.5±8.3 years. […] Mean blood pressure was calculated as: (SBP+2×DBP)/3. […]

hypertensive patients [3] = test: Study 1: blood pressure and heart rate during 8 weeks of oral BH4; format: in vivo, human
Description: Prior studies have used parenteral infusion of BH4 or a single oral dose; thus it was not known whether long-term oral BH4 over a period of days to weeks would result in a sustained improvement in endothelial dysfunction. […] Two studies were conducted to investigate the duration of action of oral BH4 and the response of hypertensive subjects to different doses of BH4. […] Patients were continued on their current anti-hypertensive therapy which remained unchanged. […] BH4 powder was obtained from Schircks Laboratories (Jona, Switzerland). BH4 when administered with vitamin C was compounded with vitamin C at a ratio of 1 mg of vitamin C/1 mg BH4 into appropriate sized capsules. Subjects were advised to keep the pills in a freezer or refrigerator. Eight subjects were recruited, 3 male, mean age 60.5±10.9 years. Subjects were assigned to one of two groups. One group received BH4 10 mg/kg/day (n=4) and the other group received 5 mg/kg/day (n=4) given in two divided doses orally for 8 weeks. These dosages were based on dosing of BH4 used in phenylketonuria. Weekly BP measurements were made throughout the treatment period, and at one week and 6 weeks after discontinuation. Mean blood pressure was calculated as: (SBP+2×DBP)/3. For both study 1 and study 2, the primary end point after statistical analysis was a reduction of systolic, mean and diastolic BP during BH4 therapy. Secondary end points included improvement of endothelial function as FMD. Linear mixed effects models for repeated measures data were used to analyze change in BP from baseline to end of treatment period and differences in change between 100 mg and 200 mg dose groups. A quadratic term for week was included in the model to account for non-linear trends over the treatment period. Dose, week and week squared were the main effect terms in the model; dose by week and dose by week squared were the interaction terms in the model. Significant interaction terms indicate a difference in the pattern of change between the two dose groups. FMD data was analyzed using the two-tailed student t-test.

SMILES: C[C@H](O)[C@H](O)[C@H]1CNc2nc(N)[nH]c(=O)c2N1 [BH4, tetrahydrobiopterin]
- mean graft survival time (cardiac allograft; BH4 50 mg/kg every 8 hours intramuscularly for 7 days, untreated allografts 7.1±0.7 days, p<0.05): 12.3 ± 4.9 days
- allograft survival (cardiac allograft; allogeneic mouse heart transplantation): significantly prolonged
- Nitrate and nitrite concentrations in plasma (cardiac allograft; day 6, also elevated in untreated animals): elevated
- coronary vessel flow (coronary vessel): increased
- insulin sensitivity [1]: increases
- Flow-mediated vasodilation of the brachial artery (brachial artery; Study 1, 6 weeks after termination of therapy, p=ns compared to baseline): 3.7±1.3%
- Flow-mediated vasodilation of the brachial artery (brachial artery; Study 1, after 8 weeks of BH4, baseline mean 3.4±1%, p=0.05, n=6): 8.2±3.4%
- Nitroglycerin-mediated vasodilation (brachial artery; Study 1, after BH4, 11.9±3% before, p=0.1, remained unchanged): 16.1±5%
- adverse events (hypertensive patients [2]): no significant adverse events
- change in diastolic BP (hypertensive patients [3]; Study 1): did not reach statistical significance
- change in heart rate with BH4 (hypertensive patients [3]; Study 1): no significant change
- differences between the 5 mg/kg and 10 mg/kg doses of BH4 (hypertensive patients [3]; Study 1): no statistically significant differences
- BP after discontinuation of therapy (hypertensive patients [3]; Study 1, 6 weeks after discontinuation, p=ns compared to baseline): returned toward pre-treatment levels
- systolic BP lower by a mean of (hypertensive patients [3]; Study 1, after 3 weeks, p=0.004): 13±9 mmHg
- systolic BP lower by a mean of (hypertensive patients [3]; Study 1, after 5 weeks, p=0.04, persisted for the 8 weeks of treatment): 15±15 mmHg
- reduction in systolic BP with BH4 (hypertensive patients [3]; Study 1, combined group (5 and 10 mg/kg/day oral, two divided doses, 8 weeks), p=0.005 quadratic trend): significant reduction
- reduction in mean arterial BP with BH4 (hypertensive patients [3]; Study 1, combined group, 8 weeks, p=0.01): significant reduction
- duration for which BP reduction was sustained (hypertensive patients [3]; continuous therapy, without tachyphylaxis): up to 8 weeks
